Reference: US20200061054A1, “USE OF DIANHYDROGALACTITOL OR ANALOGS AND DERIVATIVES IN COMBINATION WITH A P53 MODULATOR OR A PARP INHIBITOR” (Del Mar Pharmaceuticals (BC) Ltd., priority 2017, published 2020)
Entries after “also recorded” stand apart in the source; their conditions may differ.

What was measured:
[1] = tested on: Ovarian A2780 tumor cells; assay: 5-day MTT cytotoxicity, VAL-083 and/or PARP inhibitor, control siRNA cells (no BRCA1 kd); type: cell-based; settings: A2780, in combination with dianhydrogalactitol (VAL-083)
Protocol: (§1) Cytotoxicity was determined by MTT assay using the standard 5-day drug exposure protocol.
(§2) Ovarian A2780 tumor cells were treated with control or BRCA1 siRNA in 6-well plates and 24 hr later were washed, typsinized and aliquoted to 96-well plates. […] After 5 days, the cells are processed for the MTT assay.

[2] = tested on: A2780 cells; assay: 5-day MTT cytotoxic assay, combination of VAL-083 with non-DNA targeting agents (p53 modulators); type: cell-based; settings: for superadditivity / synergy in combination with VAL-083 (in words): A2780 (wild-type p53), 5-day MTT, agent combined with VAL-083, FIGS. 3-5
Source text: Additive effect of [drug A+drug B]=FaA+(1−FaA)FaB
where FaA or FaB=fraction of cells affected (Fa) by drug A or B alone. Data, where appropriate, are provided as Mean±SE of N=3 or greater.

[3] = tested on: p53-dependent response in A2780; assay: Immunoblots 24 hr after drug exposure, p53-dependent response; type: cell-based; settings: A2780, in combination with VAL-083 (DAG), FIGS. 6A and 6B
Protocol: For Western blotting, cells were lysed in EBC buffer (50 mM Tris-HCl, pH 8.0, 120 mM NaCl, 1% NP-40, and 1 mM EDTA) supplemented with phosphatase inhibitor and protease inhibitor. Cellular proteins were separated by SDS-PAGE and transferred onto PVDF membrane. After incubation with blocking buffer for 1 h, the membranes were incubated with designated primary antibodies overnight at 4° C. Then, Membranes were washed three times for 10 min and incubated with horseradish peroxidase-conjugated anti-mouse or anti-rabbit antibodies for 1-2 h. Membranes were washed with TBST three times and developed with ECL system (Pierce) according to the manufacturer's instruction.

[4] = tested on: ovarian cancer cell lines (A2780, A2780 p53-/-, 2780CP, OVCAR10, HEY, OVCA-433); settings: wild type p53, p53 knocked out and mutant p53 lines; previously shown; cited from earlier work
[5] = tested on: A2780 cells with BRCA1 knockdown; assay: 5-day MTT cytotoxicity, VAL-083 and/or PARP inhibitor, BRCA1-siRNA treated cells; settings: A2780, BRCA1 siRNA vs control siRNA, based on inspection of Fa data
Protocol: as §1, §2

Structure (SMILES): C[C@]1(c2nc3c(C(N)=O)cccc3[nH]2)CCCN1 [Veliparib, veliparib]
- superadditivity of PARP inhibitor combined with VAL-083 (in words) [1]: not as effective

Structure (SMILES): Cc1ncc(Cl)cc1NCc1ccc(C(=O)N[C@@H](CC2CCCC2)C(=O)NC2CC2)s1 [GSK2830371, (S)-5-(((5-Chloro-2-methylpyridin-3-yl)amino)methyl)-N-(3-cyclopentyl-1-(cyclopropylamino)-1-oxopropan-2-yl)thiophene-2-carboxamide]
- superadditivity / synergy in combination with VAL-083 (in words) [2]: substantial superadditivity and/or synergy
- upregulation of p53-dependent response (in words) [3]: synergistic upregulation of p53-dependent response

Structure (SMILES): O[C@H]([C@H](O)[C@@H]1CO1)[C@H]1CO1 [VAL-083, dianhydrogalactitol]
- activity in ovarian cancer cell lines (in words) [4]: active in all cell lines tested

Structure (SMILES): COc1ccc(C2=N[C@@H](c3ccc(Cl)cc3)[C@@H](c3ccc(Cl)cc3)N2C(=O)N2CCNC(=O)C2)c(OC(C)C)c1 [nutlin-3a, 4-[[(4S,5R)-4,5-Bis(4-chlorophenyl)-2-(2-isopropoxy-4-methoxyphenyl)-4,5-dihydroimidazol-1-yl]carbonyl]piperazin-2-one]
- superadditivity / synergy in combination with VAL-083 (in words) [2]: substantial superadditivity and/or synergy; also recorded: augmented the activity of dianhydrogalactitol
- combination index ([2]; A2780, nutlin-3a with VAL-083, range over ED75-ED95 (Table 3)): 0.10-0.15
- upregulation of p53-dependent response (in words) [3]: synergistic upregulation of p53-dependent response

Structure (SMILES): Nc1cc(C(F)(F)F)c(-c2cc(N3CCOCC3)nc(N3CCOCC3)n2)cn1 [BKM120]
- superadditivity / synergy in combination with VAL-083 (in words) [2]: did not result in superadditive activity

Structure (SMILES): C=CCn1c(=O)c2cnc(Nc3ccc(N4CCN(C)CC4)cc3)nc2n1-c1cccc(C(C)(C)O)n1 [MK1775]
- superadditivity / synergy in combination with VAL-083 (in words) [2]: did not result in superadditive activity

Structure (SMILES): CNCc1ccc(-c2[nH]c3cc(F)cc4c3c2CCNC4=O)cc1 [Rucaparib, rucaparib]
- increase in cellular sensitivity by BRCA1 knockdown (kd) [5]: ~3.0 fold

Structure (SMILES): Cc1sc2c(c1C)C(c1ccc(Cl)cc1)=N[C@@H](CC(=O)OC(C)(C)C)c1nnc(C)n1-2 [JQ1]
- superadditivity / synergy in combination with VAL-083 (in words) [2]: did not result in superadditive activity

Structure (SMILES): O=C(c1cc(Cc2n[nH]c(=O)c3ccccc23)ccc1F)N1CCN(C(=O)C2CC2)CC1 [Olaparib, olaparib]
- superadditivity of PARP inhibitor combined with VAL-083 (in words) [1]: super-additivity
